Test results from PMC12265377, “CC48 a new CB2R agonist/FAAH inhibitor dual drug blocks gastric cancer progression and overcomes paclitaxel resistance” (Journal of Experimental & Clinical Cancer Research : CR, 2025).
Values joined by “and” are separate entries in the source; they are usually repeats but may differ in a detail not shown here. Equal entries are not always repeated.

What was measured:
[1] = Body weight, serum biochemistry and urinalysis in treated mice; conditions: GP2 and GP3 (10 and 20 mg/kg)
Protocol: All the animals were fed ad libitum with complete mouse feed, and water was provided ad libitum. The body weight for each animal was recorded weekly, starting from day 0 until the end of the study.
Physical observations of health status, including visual checks on the mice general appearance (e.g. fur and activity levels/responsiveness), were made daily. On day 45, the animals were individually housed in metabolic cages for 24 h, with free access to water and food, in order to perform urine collection and urinalysis. Immediately before metabolic cage housing, animals were subjected to a water load (10 mL/kg by oral gavage) in order to allow urine volume normalization. In addition, blood samples were taken from the submandibular vein after isoflurane anesthesia and before sacrifice at the end of the study period. The blood was collected in Eppendorf tubes and then centrifuged at about 8,000 rpm for 15 min at 4 °C for serum collection.

[2] = system: circulating cytokines (eotaxin, G-CSF, p40IL-12); experiment: Serum cytokine quantification (Bio-Plex); format: in vivo, CD1-nude female mice
Protocol: Serum levels of 23 cytokines [G-CSF, GM-CSF, GRO/KC (CXCL1), IFN-γ, IL-1α, IL-1β, IL-2, IL-3, IL-4, IL-5, IL-6, IL-9, IL-10, IL-12 (p70), IL-13, IL-17 A, IL-18, MCP-1 (CCL2), MIP-1α, MIP-1β, RANTES, TNF-α, and eotaxin] were measured using Bio-Plex Pro Rat Cytokine 23-Plex™ (#M60009RDPD) magnetic bead-based assays (Bio-Rad Laboratories) on the Bio-Plex® platform (Bio-Rad), according to the manufacturer’s instructions. […] Cytokine expression (pg/mL) for each sample was multiplied by the dilution factor prior to the percent baseline calculation.

CB2R = CB2R affinity (literature values); format: binding; conditions: CB2R vs CB1R
NCI-N87_LUC cell line = experiment: Mouse model by intraperitoneal NCI-N87_LUC inoculation, tumor growth by IVIS; format: in vivo, CD1-nude female mice; conditions: for BLI measurement, individual animals: listed as FI-5; for tumor volume vs control group (vehicle): day 41
Protocol: EighteenCD1-nude female mice(Charles River Laboratories International, Inc.) were intraperitoneally injected with the NCI-N87 cell line, stable transfected with the luciferase gene (NCl-N87_LUC) at a concentration of 2 × 10^6/100µL cells. Experimental groups and treatments are described in the table below (Table 1). Two concentrations of the CC48 molecule, 10 and 20 mg/Kg, were tested in two experimental groups. A third group was treated with the vehicle, consisting of20% DMSO, 10% Cyclodextrin and distilled water. […] The staff involved in the study recorded all the observations on recording forms. The data concerning animals’ body weight, clinical signs, feed intake and TP intake were recorded on the experimental register. All the corrections on data collection forms were made according to the Test Facility SOPs. All derived values, of registered tumor volumes, which are reported in the Tables S2 and S3 and relative graphs, such as mean and standard deviation, represent the rounded-up results of calculation performed with Microsoft Excel. Dunnett’s multiple comparison statistical test was applied.

## O=C(NC12CC3CC(CC(C3)C1)C2)c1ccccc1OCc1ccccc1 [CC48]
[1]
  body weight vs vehicle: No statistically significant differences were observed
  serum AST, ALT, Cre, UREA and GFR vs vehicle: No statistically significant differences in biochemical results
[2]; GP2, 10 mg/kg, p < 0.01
  serum G-CSF level vs GP1: significant decrease
[2]; GP3, 20 mg/kg
  serum eotaxin level vs GP1: tended to decrease
[2]; GP3, 20 mg/kg, p < 0.05
  serum G-CSF level vs GP1: maintained at the highest dose
  serum p40IL-12 level vs GP1: significant decrease
CB2R
  fold higher affinity for CB2R compared to CB1R: 16 fold
NCI-N87_LUC cell line; GP2 10mg/kg, DAY 5, n 5 (outlier ID 7 excluded)
  BLI measurement, group MEAN: 1,45E+05
NCI-N87_LUC cell line; GP2 10mg/kg, DAY 5
  BLI measurement, individual animals: 1,32E+06 and 5,58E+05 and 1,13E+05 and 4,14E+04 and 9,93E+03 and 3,23E+03
NCI-N87_LUC cell line; GP2 10mg/kg, DAY 7, n 5
  BLI measurement, group MEAN: 1,29E+05
NCI-N87_LUC cell line; GP2 10mg/kg, DAY 7
  BLI measurement, individual animals: 1,55E+06 and 5,41E+05 and 7,10E+04 and 2,79E+04 and 3,30E+03 and 2,39E+03
NCI-N87_LUC cell line; GP2 10mg/kg, DAY 10, n 5
  BLI measurement, group MEAN: 1,07E+05
NCI-N87_LUC cell line; GP2 10mg/kg, DAY 10
  BLI measurement, individual animals: 1,30E+06 and 4,73E+05 and 4,20E+04 and 1,70E+04 and 2,56E+03 and 2,69E+03
NCI-N87_LUC cell line; GP2 10mg/kg, DAY 14, n 5
  BLI measurement, group MEAN: 1,83E+05
NCI-N87_LUC cell line; GP2 10mg/kg, DAY 14
  BLI measurement, individual animals: 7,07E+05 and 8,53E+05 and 3,80E+04 and 1,58E+04 and 2,68E+03 and 3,22E+03
NCI-N87_LUC cell line; GP2 10mg/kg, DAY 17, n 5
  BLI measurement, group MEAN: 2,73E+05
NCI-N87_LUC cell line; GP2 10mg/kg, DAY 17
  BLI measurement, individual animals: 8,99E+05 and 1,29E+06 and 6,23E+04 and 1,12E+04 and 1,95E+03 and 1,85E+03
NCI-N87_LUC cell line; GP2 10mg/kg, DAY 24, n 5
  BLI measurement, group MEAN: 3,18E+05
NCI-N87_LUC cell line; GP2 10mg/kg, DAY 24
  BLI measurement, individual animals: 1,09E+06 and 1,51E+06 and 6,35E+04 and 1,11E+04 and 2,24E+03 and 2,96E+03
NCI-N87_LUC cell line; GP2 10mg/kg, DAY 31, n 5
  BLI measurement, group MEAN: 3,12E+05
NCI-N87_LUC cell line; GP2 10mg/kg, DAY 31
  BLI measurement, individual animals: 1,51E+06 and 1,43E+06 and 1,11E+05 and 1,60E+04 and 3,40E+03 and 3,65E+03
NCI-N87_LUC cell line; GP2 10mg/kg, DAY 35, n 5
  BLI measurement, group MEAN: 2,44E+05
NCI-N87_LUC cell line; GP2 10mg/kg, DAY 35
  BLI measurement, individual animals: 2,93E+06 and 1,06E+06 and 1,41E+05 and 1,56E+04 and 3,01E+03 and 3,50E+03
NCI-N87_LUC cell line; GP2 10mg/kg, DAY 38, n 5
  BLI measurement, group MEAN: 4,60E+04
NCI-N87_LUC cell line; GP2 10mg/kg, DAY 38
  BLI measurement, individual animals: 4,74E+06 and 1,04E+05 and 1,11E+05 and 9,13E+03 and 2,90E+03 and 2,69E+03
NCI-N87_LUC cell line; GP2 10mg/kg, DAY 41, n 5
  BLI measurement, group MEAN: 2,12E+05
NCI-N87_LUC cell line; GP2 10mg/kg, DAY 41
  BLI measurement, individual animals: 3,93E+06 and 8,93E+05 and 1,54E+05 and 9,95E+03 and 3,19E+03 and 2,28E+03
NCI-N87_LUC cell line; GP2, 10 mg/kg IP every other day, p < 0.01
  tumor volume vs control group (vehicle): substantial and significant decrease in tumor volume
NCI-N87_LUC cell line; GP3 20mg/kg, DAY 5, n 5 (outlier ID 13 excluded)
  BLI measurement, group MEAN: 2,03E+05
NCI-N87_LUC cell line; GP3 20mg/kg, DAY 5
  BLI measurement, individual animals: 1,03E+06 and 8,12E+05 and 1,11E+05 and 7,63E+04
NCI-N87_LUC cell line; GP3 20mg/kg, DAY 7, n 5
  BLI measurement, group MEAN: 1,10E+05
NCI-N87_LUC cell line; GP3 20mg/kg, DAY 7
  BLI measurement, individual animals: 7,47E+05 and 4,61E+05 and 2,67E+04 and 5,08E+04
NCI-N87_LUC cell line; GP3 20mg/kg, DAY 10, n 5
  BLI measurement, group MEAN: 8,98E+04
NCI-N87_LUC cell line; GP3 20mg/kg, DAY 10
  BLI measurement, individual animals: 3,56E+05 and 3,68E+05 and 3,53E+04 and 3,80E+04
NCI-N87_LUC cell line; GP3 20mg/kg, DAY 14, n 5
  BLI measurement, group MEAN: 1,18E+05
NCI-N87_LUC cell line; GP3 20mg/kg, DAY 14
  BLI measurement, individual animals: 1,23E+06 and 5,29E+05 and 3,27E+04 and 1,72E+04
NCI-N87_LUC cell line; GP3 20mg/kg, DAY 17, n 5
  BLI measurement, group MEAN: 1,51E+05
NCI-N87_LUC cell line; GP3 20mg/kg, DAY 17
  BLI measurement, individual animals: 1,63E+06 and 7,10E+05 and 2,61E+04 and 1,16E+04
NCI-N87_LUC cell line; GP3 20mg/kg, DAY 24, n 5
  BLI measurement, group MEAN: 2,46E+05
NCI-N87_LUC cell line; GP3 20mg/kg, DAY 24
  BLI measurement, individual animals: 1,67E+06 and 1,15E+06 and 3,46E+04 and 3,03E+04
NCI-N87_LUC cell line; GP3 20mg/kg, DAY 31, n 5
  BLI measurement, group MEAN: 2,64E+05
NCI-N87_LUC cell line; GP3 20mg/kg, DAY 31
  BLI measurement, individual animals: 1,22E+06 and 1,26E+06 and 2,79E+04 and 1,85E+04
NCI-N87_LUC cell line; GP3 20mg/kg, DAY 35, n 5
  BLI measurement, group MEAN: 3,58E+05
NCI-N87_LUC cell line; GP3 20mg/kg, DAY 35
  BLI measurement, individual animals: 2,08E+06 and 1,71E+06 and 4,56E+04 and 2,63E+04
NCI-N87_LUC cell line; GP3 20mg/kg, DAY 38, n 5
  BLI measurement, group MEAN: 2,00E+05
NCI-N87_LUC cell line; GP3 20mg/kg, DAY 38
  BLI measurement, individual animals: 2,42E+06 and 9,14E+05 and 3,50E+04 and 4,29E+04
NCI-N87_LUC cell line; GP3 20mg/kg, DAY 41, n 5
  BLI measurement, group MEAN: 2,00E+04
NCI-N87_LUC cell line; GP3 20mg/kg, DAY 41
  BLI measurement, individual animals: 1,34E+06 and 3,58E+04 and 3,11E+04 and 2,06E+04
NCI-N87_LUC cell line; GP3, 20 mg/kg IP every other day, p < 0.001
  tumor volume vs control group (vehicle): statistically significant difference in the size of the tumor mass
